Results: patent US10329243B2, “Biphenyl derivative and uses thereof” (XI'AN LIBANG PHARMACEUTICAL CO., LTD, priority 2015, dated 2019)

Columns and labels:
Assay type in all cases: in vivo, SD rats
[1] = system: rats with cerebral ischemic reperfusion injury; experiment: Relative infarct volume (TTC, imageJ), cerebral ischemic reperfusion MCAO model; details: ischemic reperfusion MCAO rats; 40 mg/kg intravenously 30 min before and 12 h after reperfusion; 24 h after reperfusion
Protocol: (§1) Rats were intraperitoneally injected with 10% chloral hydrate 350 mg/kg after anesthesia and opened up at the center of the neck in accordance with the Zea Longa modified method. The right common carotid artery was separated, and the right external carotid artery branches was ligated. A small opening was made at the distal end of the external carotid artery, and a previously prepared thread was inserted through the common carotid artery and the external carotid artery bifurcation into the internal carotid artery, till the anterior end of the middle cerebral artery, with an immersed depth of 18 to 19 mm. The thread was then secured, and the wound was sutured layer by layer. After the operation, the rats were placed in a clean incubator to wake up. […] The sham operation group, the ischemic reperfusion group, and the Example groups were prepared strictly according to the requirements of the cerebral ischemic reperfusion model, while in the sham operation group the thread was put only into the external carotid artery. The animals were allowed to eat and drink freely after waking up. After 2 h, the thread was pulled out to achieve reperfusion. The sham operation group, the ischemic reperfusion group, and the Example groups were administered intravenously the aqueous solution of the biphenyl derivatives in PEG400 at 40 mg/kg (40 mg/kg means that 40 mg of the test compound per kg of the body weight of rats) 30 min before reperfusion and 12 h after reperfusion, respectively. The sham operation group and the ischemic reperfusion group were injected with the same amount of blank PEG400 aqueous solution at the same time point.
(§2) 24 hours after reperfusion, 8 rats in each group were sacrificed by decapitation, the brain was removed, rinsed with PBS (pH 7.4) at −20° i for 20 min, evenly sliced (with a thickness of 2 mm), stained in a 2% TTC solution at 37°% in the dark for 30 min, fixed in 10% formalin for 24 h, and photographs were taken to analyze the infarct volume. A mixture of femoral arterial and venous blood was drawn from another 8 rats in each group under anesthesia, placed in a low temperature centrifuge at 4° C., centrifuged at 3500 r/min for 20 min, and the supernatant was stored in a refrigerator at −20° C. ready for SOD and MDA detection. After the blood was drawn, a perfusion needle was insert through the apex to the ascending aorta, and saline at 4° C. was rapid infused until the effluent became clear, followed by 4% paraformaldehyde phosphate buffer perfusion for fixation; the brain was removed by craniotomy, and brain tissues 2 mm in front of and behind the optic chiasma were taken and fixed, dehydrated, rendered transparent, impregnated in wax, and embedded. Brain continuous coronary tissue pathological sections were consecutively cut for later use. The remaining 8 rats in each group were sacrificed, brains were removed, the ischemic brain hemispheres were immediately taken on an ice tray, and 10% brain tissue homogenate was prepared for the detection of IL-1β and TNF-α.
The infarct area in each brain section was analyzed and quantified by the imageJ image software, and the ratio of cerebral infarction volume in the overall brain volume was calculated.

SOD [2] = experiment: SOD determination, cerebral ischemic reperfusion MCAO model; details: ischemic reperfusion MCAO rats; 40 mg/kg intravenously 30 min before and 12 h after reperfusion; serum, 24 h after reperfusion
Protocol: as §1, §2
(§3) SOD and MDA were determined strictly in accordance with instructions of the kit.

IL-1β [3] = experiment: Determination of IL-1β in brain tissue homogenate, cerebral ischemic reperfusion MCAO model; details: ischemic reperfusion MCAO rats; 40 mg/kg intravenously; 10% brain tissue homogenate, 24 h after reperfusion
Protocol: as §1, §2
(§4) Brain tissue homogenate was hypothermally centrifuged at 3000 rpm for 15 min, the supernatant was taken, and IL-1β and TNF-α were determined in strict accordance with instructions of the kits.

TNF-α [4] = experiment: Determination of TNF-α in brain tissue homogenate, cerebral ischemic reperfusion MCAO model; details: ischemic reperfusion MCAO rats; 40 mg/kg intravenously; 10% brain tissue homogenate, 24 h after reperfusion
Protocol: as §1, §2, §4

SOD [5] = experiment: SOD determination, permanent cerebral ischemia model; details: permanent cerebral ischemia model rats; 40 mg/kg intravenously; serum, 24 h after the embolism
Protocol: as §1, with “the permanent cerebral ischemia model” for “the ischemic reperfusion”, “up.” for “up. After 2 h, the thread was pulled out to achieve reperfusion.”, “before insertion of thread” for “before reperfusion”, “after embolism,” for “after reperfusion,”
as §2, with “the embolism,” for “reperfusion,”, “−20°i” for “−20° i”
as §3

IL-1β [6] = experiment: Determination of IL-1β in brain tissue homogenate, permanent cerebral ischemia model; details: permanent cerebral ischemia model rats; 40 mg/kg intravenously; 10% brain tissue homogenate, 24 h after the embolism
Protocol: as §1, with “the permanent cerebral ischemia model” for “the ischemic reperfusion”, “up.” for “up. After 2 h, the thread was pulled out to achieve reperfusion.”, “before insertion of thread” for “before reperfusion”, “after embolism,” for “after reperfusion,”
as §2, with “the embolism,” for “reperfusion,”, “−20°i” for “−20° i”
as §4

TNF-α [7] = experiment: Determination of TNF-α in brain tissue homogenate, permanent cerebral ischemia model; details: permanent cerebral ischemia model rats; 40 mg/kg intravenously; 10% brain tissue homogenate, 24 h after the embolism
Protocol: as §1, with “the permanent cerebral ischemia model” for “the ischemic reperfusion”, “up.” for “up. After 2 h, the thread was pulled out to achieve reperfusion.”, “before insertion of thread” for “before reperfusion”, “after embolism,” for “after reperfusion,”
as §2, with “the embolism,” for “reperfusion,”, “−20°i” for “−20° i”
as §4

| SMILES | Relative Brain infarction volume (%) [1] [%] | SOD ACTIVITY (U/mL) (SOD [2]) | IL-1β content (IL-1β [3]) [ng/mL] | TNF-α content (TNF-α [4]) [ng/mL] | SOD ACTIVITY (U/mL) (SOD [5]) | IL-1β content (IL-1β [6]) [ng/mL] | TNF-α content (TNF-α [7]) [ng/mL] |
| --- | --- | --- | --- | --- | --- | --- | --- |
| CC(C)c1cc(-c2cc(C(C)C)c(OC=O)c(C(C)C)c2)cc(C(C)C)c1O [Example 10 group] | 23.91 ± 5.44 | 95.16 ± 3.88 | 0.67 ± 0.05 | 4.68 ± 0.61 | 94.08 ± 2.83 | 0.66 ± 0.06 | 5.05 ± 0.54 |
| CC(C)c1cc(-c2cc(C(C)C)c(OC(=O)C(N)C(C)C)c(C(C)C)c2)cc(C(C)C)c1O (stereo not drawn) [Example 11 group, 4′-hydroxy-3,3′,5,5′-tetraisopropylbiphenyl-2-amino-3-methylbutyrate] | 23.59 ± 4.11 | 96.71 ± 4.29 | 0.71 ± 0.07 | 5.31 ± 0.51 | 95.76 ± 3.93 | 0.76 ± 0.04 | 5.16 ± 0.43 |
| CC(=O)OC(C)Oc1c(C(C)C)cc(-c2cc(C(C)C)c(O)c(C(C)C)c2)cc1C(C)C (stereo not drawn) [Example 12 group, Ethyl 1-(4′-hydroxy-3,3′,5,5′-tetraisopropylbiphenyl-4-oxo)acetate] | 25.54 ± 3.29 | 92.39 ± 5.27 | 0.74 ± 0.06 | 4.95 ± 0.67 | 91.25 ± 3.84 | 0.75 ± 0.04 | 5.38 ± 0.59 |
